One experiment deals with T1, CDK1/CycB (Homo sapiens, UniProt P06493).
T1 construct: GST; purchased ProQinase GmbH, Freiburg; host or cells: baculovirus-infected Sf9 insect cells
Put plainly: CDK1/CycB kinase assay (33P-ATP incorporation into histone IIIS, filter strip scintillation). It is filed as biochemical. Conditions: recombinant CDK1- and CycB-GST fusion proteins; 0,5 µM ATP; 10 min at 22°C; substrate Histon IIIS; read-out: CDK1/CycB (Assay 1) Konzentration der halbmaximalen Inhibition der Enzymaktivität, IC50. The protocol: Assay 1: CDK1/CycB Kinase Assay
Rekombinante CDK1- und CycB-GST-Fusionsproteine, gereinigt aus Bakulovirusinfizierten Insektenzellen (Sf9), wurden von ProQinase GmbH, Freiburg, gekauft. Das als Kinase-Substrat verwendet Histon IIIS ist über die Fa. Sigma käuflich zu erwerben.
CDK1/CycB (200 ng/Messpunkt) wurde für 10 min bei 22°C in Anwesenheit verschiedener Konzentrationen an Testsubstanzen (0 µM, sowie innerhalb des Bereiches 0,001 - 10 µM) in Assaypuffer [50 mM Tris/HCl pH8,0; 10 mM MgCl2; 0,1 mM Na ortho-Vanadat; 1,0 mM Dithiothreitol; 0,5 µM Adenosintrisphosphat (ATP); 10 µg/Messpunkt Histon IIIS; 0,2 µCi/Messpunkt ^33P-gamma ATP; 0,05% NP40; 1,25% Dimethylsulfoxid] inkubiert. Die Reaktion wurde durch Zugabe von EDTA-Lösung (250 mM; pH8,0; 15 µl/Messpunkt) gestoppt.
Von jedem Reaktionsansatz wurden 15 µl auf P30 Filterstreifen (Fa. Wallac) aufgetragen, und nicht-eingebautes ^33P-ATP wurde durch dreimaliges Waschen der Filterstreifen für je 10 min in 0,5%iger Phosphorsäure entfernt. Nach dem Trocknen der Filterstreifen für 1 Stunde bei 70°C wurden die Filterstreifen mit Szintillator-Streifen (MeltiLex™ A, Fa. Wallac) bedeckt und für 1 Stunde bei 90°C eingebrannt. Die Menge an eingebautem ^33P (Substratphosphorylierung) wurde durch Szintillationsmessung in einem Gamma-Strahlungsmessgerät (Wallac) bestimmt. […]

A further experiment has as its target T2, CDK2/CycE (Homo sapiens, UniProt P24941).
T2 construct: GST; purchased ProQinase GmbH, Freiburg; host or cells: baculovirus-infected Sf9 insect cells
Put plainly: CDK2/CycE kinase assay (33P-ATP incorporation into histone IIIS, filter strip scintillation). Type of experiment: biochemical. Conditions: recombinant CDK2- and CycE-GST fusion proteins; 0,5 µM ATP; 10 min at 22°C; substrate Histon IIIS; read-out: CDK2/CycE (Assay 2) Konzentration der halbmaximalen Inhibition der Enzymaktivität, IC50. The protocol:
Assay 2: CDK2/CycE Kinase Assay
Rekombinante CDK2- und CycE-GST-Fusionsproteine, gereinigt aus Bakulovirusinfizierten Insektenzellen (Sf9), wurden von ProQinase GmbH, Freiburg, gekauft. Histon IIIS, das als Kinase-Substrat verwendet wurde, wurde bei der Fa. Sigma gekauft.
CDK2/CycE (50 ng/Messpunkt) wurde für 10 min bei 22°C in Anwesenheit verschiedener Konzentrationen an Testsubstanzen (0 µM, sowie innerhalb des Bereiches 0,001 - 10 µM) in Assaypuffer [50 mM Tris/HCl pH8,0; 10 mM MgCl2; 0,1 mM Na ortho-Vanadat; 1,0 mM Dithiothreitol; 0,5 µM Adenosintrisphosphat (ATP); 10 µg/Messpunkt Histon IIIS; 0,2 µCi/Messpunkt ^33P-gamma ATP; 0,05% NP40; 1,25% Dimethylsulfoxid] inkubiert. Die Reaktion wurde durch Zugabe von EDTA-Lösung (250 mM; pH8,0; 15 µl/Messpunkt) gestoppt.
Von jedem Reaktionsansatz wurden 15 µl auf P30 Filterstreifen (Fa. Wallac) aufgetragen, und nicht-eingebautes ^33P-ATP wurde durch dreimaliges Waschen der Filterstreifen für je 10 min in 0,5%iger Phosphorsäure entfernt. Nach dem Trocknen der Filterstreifen für 1 Stunde bei 70°C wurden die Filterstreifen mit Szintillator-Streifen (MeItiLex™ A, Fa. Wallac) bedeckt und für 1 Stunde bei 90°C eingebrannt. Die Menge an eingebautem ^33P (Substratphosphorylierung) wurde durch Szintillationsmessung in einem Gamma-Strahlungsmessgerät (Wallac) bestimmt. […]

T1 sequence (P06493 whole entry): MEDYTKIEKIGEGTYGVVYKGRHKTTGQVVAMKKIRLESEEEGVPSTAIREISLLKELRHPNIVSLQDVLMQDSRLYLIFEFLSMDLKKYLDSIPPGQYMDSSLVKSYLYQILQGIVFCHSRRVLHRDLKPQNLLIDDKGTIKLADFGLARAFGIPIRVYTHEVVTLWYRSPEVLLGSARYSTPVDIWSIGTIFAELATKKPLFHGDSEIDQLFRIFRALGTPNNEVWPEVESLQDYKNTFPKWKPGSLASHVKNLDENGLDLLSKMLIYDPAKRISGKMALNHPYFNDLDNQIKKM
T1 sequence (P14635 whole entry partner): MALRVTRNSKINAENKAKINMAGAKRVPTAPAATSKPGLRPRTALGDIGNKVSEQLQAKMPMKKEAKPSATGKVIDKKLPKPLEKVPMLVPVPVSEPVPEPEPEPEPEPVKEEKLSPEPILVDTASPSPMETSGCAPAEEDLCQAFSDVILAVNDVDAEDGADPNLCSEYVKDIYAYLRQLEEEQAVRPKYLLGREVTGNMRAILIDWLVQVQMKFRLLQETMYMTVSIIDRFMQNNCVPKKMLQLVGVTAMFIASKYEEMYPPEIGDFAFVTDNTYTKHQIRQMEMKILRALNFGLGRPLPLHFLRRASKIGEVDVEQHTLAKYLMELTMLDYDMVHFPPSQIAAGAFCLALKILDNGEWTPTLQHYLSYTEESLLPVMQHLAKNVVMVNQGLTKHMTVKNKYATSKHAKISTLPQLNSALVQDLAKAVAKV

Take `C[C@@H](Oc1nc(Nc2ccc([S+](C)[O-])cc2)ncc1C(F)(F)F)C(C)(C)O` (stereo partly drawn) [Beispiel 2, (R)-3-[2-(4-Methansulfinyl-phenylamino)-5-trifluormethyl-pyrimidin-4-yloxy]-2-methyl-butan-2-ol]: the values for the IC50 on CDK1/CycB and on CDK2/CycE were 30 nM and 12 nM, respectively.
Regarding `C[C@@H](O)[C@@H](C)Oc1nc(Nc2ccc([S+](C)[O-])cc2)ncc1C(F)(F)F` (stereo partly drawn) [Beispiel 1, (2R,3R)-3-[2-(4-Methansulfinyl-phenylamino)-5-trifluormethyl-pyrimidin-4-yloxy]-butan-2-ol], the IC50 at CDK1/CycB came to 7 nM; at CDK2/CycE it was 5 nM.

The record behind these values is patent EP2179993A1, “Sulfoxide substituted aniline pyrimidine derivatives as CDK inhibitors, their manufacture and use as medicine” (Bayer Schering Pharma Aktiengesellschaft, priority 2008, dated 2010).
